Laboratory results taken from patent US20170015666A1, “ENHANCER OF ZESTE HOMOLOG 2 INHIBITORS” (GLAXOSMITHKLINE INTELLECTUAL PROPERTY (NO.2) LIMITED, priority 2014, published 2017).

Molecular target: T1, EZH2 within the PRC2 complex (Homo sapiens, UniProt Q15910)
T1 construct: FLAG; made in house; host or cells: Sf9 cells
Assay: EZH2 methyltransferase scintillation proximity assay (SPA) with PRC2 complex
Format: biochemical
Conditions: 3H-SAM, HeLa mononucleosome substrate, 30 min preincubation, 1 hour reaction

T1 sequence (Q15910 whole entry): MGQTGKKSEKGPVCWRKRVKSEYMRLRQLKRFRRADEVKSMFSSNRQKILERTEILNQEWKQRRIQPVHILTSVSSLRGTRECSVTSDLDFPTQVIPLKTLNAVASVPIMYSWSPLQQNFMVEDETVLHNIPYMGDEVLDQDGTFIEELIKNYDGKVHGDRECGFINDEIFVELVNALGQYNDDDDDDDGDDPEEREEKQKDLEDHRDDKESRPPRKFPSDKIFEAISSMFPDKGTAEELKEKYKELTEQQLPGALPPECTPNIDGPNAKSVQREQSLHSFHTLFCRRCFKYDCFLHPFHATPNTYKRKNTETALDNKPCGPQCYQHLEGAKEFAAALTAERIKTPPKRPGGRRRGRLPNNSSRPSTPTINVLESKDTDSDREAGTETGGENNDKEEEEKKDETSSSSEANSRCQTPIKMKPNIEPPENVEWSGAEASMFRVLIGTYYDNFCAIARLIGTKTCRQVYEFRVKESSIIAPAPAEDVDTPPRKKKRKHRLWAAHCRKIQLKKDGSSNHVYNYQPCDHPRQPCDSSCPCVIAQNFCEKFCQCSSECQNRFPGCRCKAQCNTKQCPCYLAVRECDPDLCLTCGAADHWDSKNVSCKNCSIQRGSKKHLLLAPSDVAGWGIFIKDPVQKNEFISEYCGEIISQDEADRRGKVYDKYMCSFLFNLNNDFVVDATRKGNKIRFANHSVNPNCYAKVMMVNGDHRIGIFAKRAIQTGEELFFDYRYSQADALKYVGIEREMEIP
T1 sequence (O75530 whole entry partner): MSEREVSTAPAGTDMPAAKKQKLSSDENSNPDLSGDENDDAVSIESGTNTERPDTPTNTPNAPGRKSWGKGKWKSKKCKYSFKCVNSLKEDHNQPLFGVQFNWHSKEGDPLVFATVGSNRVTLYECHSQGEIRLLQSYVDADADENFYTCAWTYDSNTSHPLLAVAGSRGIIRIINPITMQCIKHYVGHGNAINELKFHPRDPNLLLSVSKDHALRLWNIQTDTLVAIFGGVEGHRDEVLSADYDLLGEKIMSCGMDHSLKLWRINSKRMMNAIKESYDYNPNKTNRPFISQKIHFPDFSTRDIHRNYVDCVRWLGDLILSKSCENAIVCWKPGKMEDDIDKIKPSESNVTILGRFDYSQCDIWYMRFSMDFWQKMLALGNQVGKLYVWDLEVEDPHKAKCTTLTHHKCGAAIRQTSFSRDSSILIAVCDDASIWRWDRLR
T1 sequence (Q15022 whole entry partner): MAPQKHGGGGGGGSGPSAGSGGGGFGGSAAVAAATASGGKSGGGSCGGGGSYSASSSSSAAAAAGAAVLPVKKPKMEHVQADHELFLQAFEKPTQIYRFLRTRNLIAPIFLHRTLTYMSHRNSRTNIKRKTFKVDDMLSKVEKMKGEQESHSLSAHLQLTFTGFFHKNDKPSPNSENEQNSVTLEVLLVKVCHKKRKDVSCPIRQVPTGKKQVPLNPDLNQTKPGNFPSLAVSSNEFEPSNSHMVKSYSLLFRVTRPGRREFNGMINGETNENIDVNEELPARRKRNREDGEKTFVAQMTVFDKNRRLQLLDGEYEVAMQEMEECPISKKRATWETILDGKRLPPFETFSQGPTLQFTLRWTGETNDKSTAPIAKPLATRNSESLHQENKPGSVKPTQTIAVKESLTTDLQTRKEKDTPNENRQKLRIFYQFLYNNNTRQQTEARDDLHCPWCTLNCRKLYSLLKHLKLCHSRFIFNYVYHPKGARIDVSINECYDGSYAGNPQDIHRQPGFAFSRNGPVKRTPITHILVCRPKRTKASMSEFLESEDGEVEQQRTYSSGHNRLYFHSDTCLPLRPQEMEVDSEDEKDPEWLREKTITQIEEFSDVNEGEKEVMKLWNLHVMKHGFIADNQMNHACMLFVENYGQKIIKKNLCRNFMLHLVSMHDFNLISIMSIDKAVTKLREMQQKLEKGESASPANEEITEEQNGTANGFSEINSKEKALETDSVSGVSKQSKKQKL
T1 sequence (Q09028 whole entry partner): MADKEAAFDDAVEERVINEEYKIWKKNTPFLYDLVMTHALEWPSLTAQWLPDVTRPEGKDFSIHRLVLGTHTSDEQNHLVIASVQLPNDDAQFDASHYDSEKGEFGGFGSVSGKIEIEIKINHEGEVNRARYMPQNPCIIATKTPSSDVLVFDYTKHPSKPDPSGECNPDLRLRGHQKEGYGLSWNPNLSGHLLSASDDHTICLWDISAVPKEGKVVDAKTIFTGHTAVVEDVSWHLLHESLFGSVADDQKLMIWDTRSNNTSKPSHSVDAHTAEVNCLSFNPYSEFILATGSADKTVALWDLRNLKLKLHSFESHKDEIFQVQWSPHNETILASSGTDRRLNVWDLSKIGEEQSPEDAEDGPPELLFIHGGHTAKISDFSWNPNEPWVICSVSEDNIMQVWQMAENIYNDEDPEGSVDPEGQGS
T1 sequence (Q6ZN18 whole entry partner): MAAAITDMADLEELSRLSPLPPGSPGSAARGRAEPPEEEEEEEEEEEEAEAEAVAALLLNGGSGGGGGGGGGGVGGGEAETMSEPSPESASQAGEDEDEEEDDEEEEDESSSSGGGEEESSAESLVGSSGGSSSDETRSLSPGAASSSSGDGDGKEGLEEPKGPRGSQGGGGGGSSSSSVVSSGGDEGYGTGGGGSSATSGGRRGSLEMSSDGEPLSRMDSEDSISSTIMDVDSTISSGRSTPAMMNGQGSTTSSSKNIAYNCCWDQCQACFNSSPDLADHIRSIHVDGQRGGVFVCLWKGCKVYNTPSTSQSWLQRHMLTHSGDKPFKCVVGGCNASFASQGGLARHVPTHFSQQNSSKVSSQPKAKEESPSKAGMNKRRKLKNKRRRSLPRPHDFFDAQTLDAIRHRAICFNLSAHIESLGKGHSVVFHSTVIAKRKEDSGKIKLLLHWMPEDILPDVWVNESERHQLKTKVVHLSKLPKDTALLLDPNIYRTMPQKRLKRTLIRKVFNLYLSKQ

| SMILES | IC50 [nM] |
| --- | --- |
| Cc1cc2c(c(=O)[nH]1)CNC(=O)c1cc(-c3ccc(N4CCNCC4)nc3)cc3c1c(cn3C(C)C)C/C=C/CC2 [Example 4, (E)-4-isopropyl-12-methyl-2-(6-(piperazin-1-yl)pyridin-3-yl)-9,10,15,16-tetrahydro-4H-pyrido[4′,3′:11,12][1]azacyclotridecino[5,4,3-cd]indole-14,17(6H,13H)-dione] | 32 |
| Cc1cc2c(c(=O)[nH]1)CNC(=O)c1cc(C#CC(C)(C)O)cc3c1c(cn3C(C)C)C/C=C/CC2 [Example 6, (E)-2-(3-hydroxy-3-methylbut-1-yn-1-yl)-4-isopropyl-12-methyl-9,10,15,16-tetrahydro-4H-pyrido[4′,3′:11,12][1]azacyclotridecino[5,4,3-cd]indole-14,17(6H,13H)-dione] | 200 |

The remaining lines, values ahead:

| IC50 [nM] | SMILES |
| --- | --- |
| 40 | Cc1cc2c(c(=O)[nH]1)CNC(=O)c1cc(Cl)cc3c1c(cn3C(C)C)C/C=C/CC2 [Example 1, (E)-2-chloro-4-isopropyl-12-methyl-9,10,15,16-tetrahydro-4H-pyrido[4′,3′:11,12][1]azacyclotridecino[5,4,3-cd]indole-14,17(6H,13H)-dione] |
| 316 | Cc1cc2c(c(=O)[nH]1)CNC(=O)c1cc(Cl)cc3c1c(cn3C(C)C)C/C=C\CC2 [Example 2, (Z)-2-chloro-4-isopropyl-12-methyl-9,10,15,16-tetrahydro-4H-pyrido[4′,3′:11,12][1]azacyclotridecino[5,4,3-cd]indole-14,17(6H,13H)-dione] |
| 500 | Cc1cc2c(c(=O)[nH]1)CNC(=O)c1cc(Cl)cc3c1c(cn3C(C)C)CCCCC2 [Example 3, 2-chloro-4-isopropyl-12-methyl-7,8,9,10,15,16-hexahydro-4H-pyrido[4′,3′:11,12][1]azacyclotridecino[5,4,3-cd]indole-14,17(6H,13H)-dione] |
| 158 | Cc1cc2c(c(=O)[nH]1)CNC(=O)c1cc(C#N)cc3c1c(cn3C(C)C)C/C=C/CC2 [Example 5, (E)-4-isopropyl-12-methyl-14,17-dioxo-6,9,10,13,14,15,16,17-octahydro-4H-pyrido[4′,3′:11,12][1]azacyclotridecino[5,4,3-cd]indole-2-carbonitrile] |
